In patent US11505533B2, “Metabolically stable N-acylaminooxadiazoles useful as antibacterial agents” (MICROBIOTIX, INC., priority 2017, dated 2022):
≈ marks a conversion by molar mass, not a printed value.

What was measured:
MRSA USA 300 (BAA-1717) = type: cell-based; conditions: Staphylococcus aureus; MRSA USA 300 (BAA-1717); read-out: MIC
E. coli TolC(−) [1] = experiment: TolC(−) MIC (NB); type: cell-based; conditions: Escherichia coli, read-out: TolC(−) MIC (μM)(NB)
[2] = test system: S. aureus ATCC 25923 (MSSA. osteomyelitis isolate); type: cell-based; conditions: Staphylococcus aureus; S. aureus ATCC 25923 (MSSA); read-out: MIC
MRSA-1094 (MDR) = type: cell-based; conditions: Staphylococcus aureus; MRSA-1094 (MDR); read-out: MIC
[3] = Mammalian cell cytotoxicity
[4] = test system: E. coli (700, TolC+) efflux pos; type: cell-based; conditions: Escherichia coli; E. coli (700, TolC+) efflux pos; read-out: MIC
[5] = Aqueous solubility, nephelometry; conditions: water, kinetic from dmso stock
[6] = Microsomal stability + NADPH; conditions: mouse liver microsomes, 0.5 hr at 37° C.
E. coli TolC(−) [7] = conditions: MIC in the presence of 10% fetal calf serum versus without
Caco-2 permeability = type: in vitro ADME; conditions: human, direction not given
From the text: Res., 15(5): 726-733 (1998).

[8] = Mouse serum binding, equilibrium dialysis
N. gonorrhoeae 49226 = type: cell-based; conditions: Neisseria gonorrhoeae; N. gonorrhoeae 49226; read-out: MIC
Mouse serum stability = conditions: 5 μM, 37° C., 4 h

Structure (SMILES)	MIC (MRSA USA 300 (BAA-1717)) [µg/mL]	MIC (E. coli TolC(−) [1]) [µM]	MIC [2] [µg/mL]	MIC (MRSA-1094 (MDR)) [µg/mL]	CC50 [3] [µM]	MIC [4] [µg/mL]	solubility [5] [µM]	Microsomal Stability + NADPH % degraded [6] [%]	Fold Serum Shift vs. TolC(−) (E. coli TolC(−) [7]) [fold]	Papp (Caco-2 permeability) [×10⁻⁶ cm/s]	fraction unbound [8]	MIC (N. gonorrhoeae 49226) [µg/mL]	Serum Stability (% remain) (Mouse serum stability) [%]
CCN(c1ccccc1)c1ccc(C(=O)Nc2nnc(-c3ccc(F)cc3)o2)cc1 [compound 4285]	0.63 (≈ 1.57 µM)	2.48 (≈ 0.998 µg/mL)	6.34 (≈ 15.8 µM)	2.52 (≈ 6.26 µM)	59.9	> 40	3.12 (≈ 1.26 µg/mL)						
CC(C)(C)OC(=O)N1CC(Oc2ccc(C(=O)Nc3nnc(-c4ccc(F)cc4)o3)cc2)C1 [compound 4288]	2.01 (≈ 4.42 µM)	3.51 (≈ 1.59 µg/mL)	7.16 (≈ 15.8 µM)	5.68 (≈ 12.5 µM)	6.6	> 45	25 (≈ 11.4 µg/mL)						
O=C(Nc1nnc(-c2ccc(F)cc2)o1)c1ccc(Oc2cccc(O)c2)cc1 [compound 4304]		3.51 (≈ 1.37 µg/mL)			> 100		50 (≈ 19.6 µg/mL)	85	28.5	13.7	< 0.01		
Cc1cc(C)cc(Oc2ccc(C(=O)Nc3nnc(-c4ccc(F)cc4)o3)cc2)c1 [compound 4308]		1.56 (≈ 0.63 µg/mL)			32		3.13 (≈ 1.26 µg/mL)	<30					
COc1cccc(Oc2ccc(C(=O)Nc3nnc(-c4ccc(F)cc4)o3)cc2)c1 [compound 4309]		0.984 (≈ 0.399 µg/mL)			> 100		6.25 (≈ 2.53 µg/mL)	<30					
COc1ccc(Oc2ccc(C(=O)Nc3nnc(-c4ccc(F)cc4)o3)cc2)cc1 [compound 4310]		0.781 (≈ 0.317 µg/mL)			> 100		6.25 (≈ 2.53 µg/mL)	<30					
O=C(Nc1nnc(-c2ccc(F)cc2)o1)N1Cc2ccccc2C1 [compound 4330]	1.01 (≈ 3.11 µM)	6.25 (≈ 2.03 µg/mL)	≥ 32	2.03 (≈ 6.26 µM)	> 100	> 32	3.13 (≈ 1.02 µg/mL)	43.5				0.16 (≈ 0.493 µM)	
O=C(Nc1nnc(-c2ccc(F)cc2)o1)N1CCc2cc(F)ccc2C1 [compound 4331]		3.12 (≈ 1.11 µg/mL)	4.45 (≈ 12.5 µM)	3.15 (≈ 8.84 µM)	34	> 35	12.5 (≈ 4.45 µg/mL)	<30				0.089 (≈ 0.25 µM)	
O=C(Nc1nnc(-c2ccc(F)cc2)o1)N1CCc2ccc(F)cc2C1 [compound 4332]		3.12 (≈ 1.11 µg/mL)	7.07 (≈ 19.8 µM)	5 (≈ 14 µM)	14.4	> 35	3.13 (≈ 1.12 µg/mL)	<30				0.089 (≈ 0.25 µM)	
C=CCN(C)C(=O)Nc1nnc(-c2ccc(F)cc2)o1 [compound 4345]		25 (≈ 6.91 µg/mL)	27.6 (≈ 99.9 µM)	19.5 (≈ 70.7 µM)		> 27							
O=C(Nc1nnc(-c2ccc(F)cc2)o1)N1CC=C(C(F)(F)F)CC1 [compound 4347]		2.48 (≈ 0.884 µg/mL)	> 35	2.23 (≈ 6.26 µM)	> 100	> 27	3.1 (≈ 1.1 µg/mL)	<30		21.8	< 0.01	0.089 (≈ 0.25 µM)	93
CC1=CCN(C(=O)Nc2nnc(-c3ccc(F)cc3)o2)CC1 [compound 4366]		6.25 (≈ 1.89 µg/mL)			46		25 (≈ 7.56 µg/mL)	45	4	67.3	0.051		95
O=C(Nc1nnc(C2CCCC2)o1)c1ccc(Oc2ccccc2)nc1 [compound 4470]		7.02 (≈ 2.46 µg/mL)			> 100		100 (≈ 35 µg/mL)	2	7.1		0.022		
Cc1cccc(-c2nnc(NC(=O)c3ccc(Oc4ccccc4)nc3)o2)c1 [compound 4499]		1.56 (≈ 0.581 µg/mL)			> 100		25 (≈ 9.31 µg/mL)	19	20		< 0.01		
O=C(Nc1nnc(-c2ccc(F)cc2)o1)N1CCC(Cl)=C(Cl)C1 [compound 4737]		0.78 (≈ 0.279 µg/mL)			> 100		6.3 (≈ 2.25 µg/mL)	21	32		< 0.01		>95
O=C(Nc1nnc(C2CCCCC2)o1)c1ccc(Oc2ccccc2)nc1 [compound 4780]		1.24 (≈ 0.452 µg/mL)									0.005		
O=C(Nc1nnc(C2CCCCC2)o1)c1ccc(Oc2cccc(O)c2)cc1 [compound 4801]		3.13 (≈ 1.19 µg/mL)					12.5 (≈ 4.74 µg/mL)		16	13.2			>95
O=C(Nc1nnc(C2CCCCC2)o1)N1CCC(Cl)=C(Cl)C1 [compound 4808]		6.25 (≈ 2.16 µg/mL)								24.5			>95
O=C(Nc1nnc(-c2ccc(F)cc2)o1)N1CC(C(F)(F)F)C(C(F)(F)F)C1 (stereo not shown) [compound 4839]		3.13 (≈ 1.29 µg/mL)					6.25 (≈ 2.58 µg/mL)		12.5				>95
O=C(Nc1nnc(-c2ccc(F)cc2)o1)N1CCC(C(F)(F)F)CC1 [compound 4840]		6.25 (≈ 2.24 µg/mL)							4				
CC(C)(C)C1=CCN(C(=O)Nc2nnc(-c3ccc(F)cc3)o2)CC1 [compound 4841]		6.25 (≈ 2.15 µg/mL)							8				
O=C(Nc1nnc(-c2ccc(F)cc2)o1)N1CCC2(CCC2)CC1 [compound 4842]		6.25 (≈ 2.06 µg/mL)							4				77
CC1=C(Br)CN(C(=O)Nc2nnc(-c3ccc(F)cc3)o2)CC1 [compound 4923]		0.78 (≈ 0.297 µg/mL)							18				>95
